Test results as given in patent US11815448B2, “Method, reagent, and chip for measuring analyte concentration in specimen” (TERUMO KABUSHIKI KAISHA, priority 2018, dated 2023).
Where a name gives a salt, the structure may show the parent alone.

Experiment: Evaluation of maximum absorption wavelength (λmax)
Assay type: physicochemical
Procedure: A 10 mM MOPS aqueous solution is added so that the final concentrations of the respective formazan compounds are 50 to […] to prepare 100 μL of each sample. Separately, a 1M nickel ion aqueous solution is prepared. To 100 μL of the sample, 10 μL of the 1M nickel ion aqueous solution is added, and the mixture is rapidly stirred to prepare a mixed solution. The spectrum of the mixed solution is measured with a spectrophotometer (measurement cell length: 10 mm) (n=1). Based on each spectrum, the maximum absorption wavelength (λmax) (nm) of each compound in formazan is determined.
Diethyl ether was added to the reaction solution obtained in 3. above to precipitate the tetrazolium compound 1. The precipitate was centrifuged, and the supernatant was removed, followed by washing with diethyl ether. The obtained precipitate was dried in a draft to obtain tetrazolium compound 1 (120 mg, yield: 11.8% by mass). The maximum absorption wavelength (λmax) of the tetrazolium compound 1 thus obtained was measured and found to be 630 nm.

Structure (SMILES): COc1ccc2nc(-n3nc(-c4ccc(S(=O)(=O)O)cc4S(=O)(=O)[O-])n[n+]3-c3ccc(OC)c(S(=O)(=O)O)c3)sc2c1 [tetrazolium compound 1, 2-(6-methoxybenzothiazolyl)-3-(3-sulfo-4-methoxy-phenyl)-5-(2,4-disulfophenyl)-2H-tetrazolium salt]
- maximum absorption wavelength (λmax): 630 nm
